Source: the supplement of paper PMC10307832

What was measured:
Assay in all cases: relative viability (nuclei count vs DMSO), 5 days (fraction); higher = more cells survive
4EGI-1 + Pictilisib = compound: O=C(O)C(Cc1ccccc1[N+](=O)[O-])=NNc1nc(-c2ccc(Cl)c(Cl)c2)cs1 (mixture of isomers) [4EGI-1] + CS(=O)(=O)N1CCN(Cc2cc3nc(-c4cccc5[nH]ncc45)nc(N4CCOCC4)c3s2)CC1 [Pictilisib] (partner 1 µM)
How it was run: (§1)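 Lung cancer cell lines, seeded in 1536-well plates, were treated the following day by pin tool with a single drug or with five library-drug doses (not always all listed) in √10 steps on top of a fixed anchor-drug dose. Cells were fixed and nuclei stained in one step after 5 days, and nuclei were counted. Relative viability is the nuclei count for treated wells divided by that for vehicle wells, reported as medians of duplicate plates.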

XMD8-85 + Phenformin = compound: CN1CCN(CC1)C2=CC(=C(C=C2)NC3=NC=C4C(=N3)N(C5=CC=CC=C5C(=O)N4C)C)OC [XMD8-85] + N=C(N)NC(=N)NCCc1ccccc1 [Phenformin] (partner 250 µM)
How it was run: as §1

4EGI-1 + Trametinib = compound: O=C(O)C(Cc1ccccc1[N+](=O)[O-])=NNc1nc(-c2ccc(Cl)c(Cl)c2)cs1 (mixture of isomers) [4EGI-1] + CC(=O)Nc1cccc(-n2c(=O)n(C3CC3)c(=O)c3c(Nc4ccc(I)cc4F)n(C)c(=O)c(C)c32)c1 [Trametinib] (partner 0.02 µM)
How it was run: as §1

4EGI-1 + Vorinostat = compound: O=C(O)C(Cc1ccccc1[N+](=O)[O-])=NNc1nc(-c2ccc(Cl)c(Cl)c2)cs1 (mixture of isomers) [4EGI-1] + O=C(CCCCCCC(=O)Nc1ccccc1)NO [Vorinostat] (partner 1 µM)
How it was run: as §1

| Cell Line | relative viability (4EGI-1 + Pictilisib; first compound 0.5 µM) | relative viability (4EGI-1 + Pictilisib; first compound 1.581 µM) | relative viability (4EGI-1 + Pictilisib; first compound 5 µM) | relative viability (4EGI-1 + Pictilisib; first compound 15.81 µM) | relative viability (4EGI-1 + Pictilisib; first compound 50 µM) | relative viability (XMD8-85 + Phenformin; first compound 0.08 µM) | relative viability (XMD8-85 + Phenformin; first compound 0.253 µM) | relative viability (XMD8-85 + Phenformin; first compound 0.8 µM) | relative viability (XMD8-85 + Phenformin; first compound 2.53 µM) | relative viability (XMD8-85 + Phenformin; first compound 8 µM) | relative viability (4EGI-1 + Trametinib; first compound 0.5 µM) | relative viability (4EGI-1 + Trametinib; first compound 1.581 µM) | relative viability (4EGI-1 + Trametinib; first compound 5 µM) | relative viability (4EGI-1 + Trametinib; first compound 15.81 µM) | relative viability (4EGI-1 + Trametinib; first compound 50 µM) | relative viability (4EGI-1 + Vorinostat; first compound 0.5 µM) | relative viability (4EGI-1 + Vorinostat; first compound 1.581 µM) | relative viability (4EGI-1 + Vorinostat; first compound 5 µM) | relative viability (4EGI-1 + Vorinostat; first compound 15.81 µM) | relative viability (4EGI-1 + Vorinostat; first compound 50 µM) |
| --- | --- | --- | --- | --- | --- | --- | --- | --- | --- | --- | --- | --- | --- | --- | --- | --- | --- | --- | --- | --- |
| NCI-H1703 | 0.266 | 0.253 | 0.238 | 0.222 | 0.255 |  |  |  |  |  |  |  |  |  |  |  |  |  |  |  |
| 201T | 0.702 | 0.655 | 0.707 | 0.638 | 0.603 | 0.437 | 0.467 | 0.444 | 0.469 | 0.447 | 0.714 | 0.705 | 0.742 | 0.744 | 0.636 | 1.11 | 1.03 | 1.07 | 0.852 | 0.559 |
| LK-2 | 0.621 |  | 0.696 | 0.64 | 0.541 |  | 0.279 | 0.377 | 0.374 | 0.213 | 0.841 | 0.529 | 0.944 | 0.75 | 0.609 | 0.314 | 0.174 | 0.337 | 0.354 | 0.236 |
| HCC-78 | 0.206 | 0.257 | 0.153 | 0.191 | 0.234 | 0.705 | 0.84 | 0.695 | 0.665 | 0.46 | 1.18 |  | 0.733 | 0.674 | 0.788 | 0.579 |  | 0.435 | 0.443 | 0.451 |
| EMC-BAC-2 | 0.642 | 0.492 | 0.579 | 0.514 | 0.502 | 0.475 | 0.518 |  | 0.517 | 0.429 | 0.989 |  | 0.928 | 0.878 | 0.652 | 0.472 |  | 0.634 | 0.318 | 0.168 |
| NCI-H2023 | 0.275 |  | 0.207 | 0.177 | 0.0916 | 0.347 | 0.398 | 0.422 | 0.355 | 0.327 | 0.865 |  | 0.593 | 0.214 | 0.0814 | 0.91 |  | 0.722 | 0.138 | 0.0836 |
| SK-MES-1 | 0.458 | 0.349 | 0.338 | 0.303 | 0.347 | 0.699 | 0.624 | 0.645 | 0.643 | 0.427 | 0.582 | 0.559 | 0.568 | 0.541 | 0.418 | 1.09 | 0.938 | 1.1 | 0.728 | 0.228 |
| NCI-H1755 | 0.604 | 0.477 | 0.459 | 0.398 | 0.235 | 0.608 | 0.65 | 0.429 | 0.581 | 0.495 | 0.773 | 0.802 | 0.711 | 0.72 | 0.556 | 0.818 | 0.749 | 0.891 | 0.853 | 0.626 |
| NCI-H2405 | 0.471 | 0.355 | 0.547 | 0.571 | 0.518 | 0.391 | 0.391 | 0.366 | 0.381 | 0.228 | 0.856 |  | 0.703 | 0.771 | 0.482 | 1.07 |  | 1.02 | 1.01 | 0.35 |
| IA-LM | 0.349 | 0.317 | 0.243 | 0.0957 | 0.08 |  |  |  |  |  |  |  |  |  |  | 1.04 | 0.91 | 0.871 | 0.698 | 0.261 |
| SK-LU-1 | 0.628 | 0.648 | 0.618 | 0.541 | 0.416 | 0.382 | 0.59 | 0.653 | 0.68 | 0.467 | 0.5 | 0.527 | 0.538 | 0.474 | 0.326 | 0.717 | 0.786 | 0.817 | 0.757 | 0.289 |
| NCI-H1563 | 0.637 | 0.662 | 0.622 | 0.662 | 0.521 | 0.65 | 0.609 | 0.63 |  | 0.615 |  |  |  |  |  |  |  |  |  |  |
| PC-14 | 0.879 | 0.464 | 0.602 |  | 0.704 | 0.524 | 0.66 | 0.575 | 0.611 | 0.193 | 1.01 |  | 0.786 | 0.561 | 0.0572 | 0.865 |  | 0.824 | 0.0883 | 0.0654 |
| LCLC-103H | 0.57 | 0.541 | 0.591 | 0.574 | 0.451 | 0.329 | 0.34 | 0.36 | 0.372 | 0.303 | 0.684 | 0.634 | 0.626 | 0.581 | 0.465 | 0.619 | 0.75 | 0.851 | 0.746 | 0.282 |
| SW 900 |  |  |  |  |  | 0.448 | 0.523 | 0.675 | 0.554 | 0.22 | 1.11 | 0.8 | 0.773 | 0.584 | 0.173 | 0.615 | 0.59 | 0.503 | 0.314 | 0.15 |
| NCI-H522 |  |  |  |  |  | 0.664 | 0.697 | 0.338 | 0.367 | 0.67 | 0.787 | 0.681 | 0.847 | 0.859 | 0.677 | 0.812 | 0.903 | 0.954 | 1.03 | 0.634 |
| EBC-1 | 0.519 | 0.405 | 0.416 | 0.269 | 0.19 |  |  |  |  |  |  |  |  |  |  |  |  |  |  |  |
| NCI-H1623 |  |  |  |  |  | 0.611 | 0.584 | 0.578 | 0.555 |  |  |  |  |  |  |  |  |  |  |  |
| NCI-H1648 |  |  |  |  |  |  |  |  |  |  | 0.574 | 0.506 | 0.471 | 0.526 | 0.304 | 1.18 | 0.388 | 0.351 | 0.414 | 0.474 |
| NCI-H2342 |  |  |  |  |  | 0.646 | 0.56 | 0.682 | 0.608 | 0.599 | 0.894 | 0.802 | 0.881 | 0.98 | 0.906 | 0.765 | 0.664 | 0.833 | 0.835 | 0.712 |
| Calu-6 | 0.969 | 0.937 | 0.825 | 0.79 | 0.198 |  |  |  |  |  |  |  |  |  |  |  |  |  |  |  |
| ABC-1 | 0.898 | 0.647 | 0.724 | 0.359 | 0.268 | 0.221 | 0.245 | 0.248 | 0.234 | 0.229 |  |  |  |  |  | 1.16 |  | 1.35 | 0.439 | 0.284 |
